Source: US20230210870A1, “METHODS OF TREATING FEMALE HEALTH CONDITIONS RELATED TO SEX HORMONES” (priority 2020, published 2023)
pEC50, pIC50: −log10 of the molar value.

Legend:
α1β2γ2 GABAA receptor [1] = target: T1, α1β2γ2 GABAA receptor (Homo sapiens, UniProt P14867+P47870); assay: FLIPR modulation of GABA response in cells expressing GABAA receptor subtype; type: cell-based; conditions: in presence of GABA, — = value not measurable
T1 construct: expressed in transfected cells
Method: (§1) Cells expressing the indicated GABAA receptor subtype were exposed to gamma-aminobutyric acid in the presence of varying concentrations of either CV-10155 or SPNC-019, calcium flux was measured using a fluorometric imaging plate reader (FLIPR), and EC50 values for compounds were determined.

α6β2γ2 GABAA receptor = target: T2, α6β2γ2 GABAA receptor (Homo sapiens, UniProt P47870+Q16445); assay: as above; type: cell-based; conditions: in presence of GABA, — = value not measurable
T2 construct: expressed in transfected cells
Method: as §1

α5β1γ2 GABAA receptor = target: T3, α5β1γ2 GABAA receptor (Homo sapiens, UniProt P18505+P31644); assay: as above; type: cell-based; conditions: in presence of GABA, — = value not measurable
T3 construct: expressed in transfected cells
Method: as §1

α1β1γ2 GABAA receptor = target: T4, α1β1γ2 GABAA receptor (Homo sapiens, UniProt P14867+P18505); assay: as above; type: cell-based; conditions: in presence of GABA, — = value not measurable
T4 construct: expressed in transfected cells
T4 sequence (P14867 28-456): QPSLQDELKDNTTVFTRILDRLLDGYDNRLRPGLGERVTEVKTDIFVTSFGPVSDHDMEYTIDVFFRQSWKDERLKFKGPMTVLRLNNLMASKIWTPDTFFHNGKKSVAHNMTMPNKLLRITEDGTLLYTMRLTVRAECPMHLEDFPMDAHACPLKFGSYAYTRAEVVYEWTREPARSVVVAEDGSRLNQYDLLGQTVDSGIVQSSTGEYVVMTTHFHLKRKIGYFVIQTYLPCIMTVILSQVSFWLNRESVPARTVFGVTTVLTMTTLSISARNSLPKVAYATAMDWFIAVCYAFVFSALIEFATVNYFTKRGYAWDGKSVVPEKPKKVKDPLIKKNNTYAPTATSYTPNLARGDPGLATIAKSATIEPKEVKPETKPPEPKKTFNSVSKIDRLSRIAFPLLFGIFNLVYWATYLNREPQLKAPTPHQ
T4 sequence (P18505 26-474): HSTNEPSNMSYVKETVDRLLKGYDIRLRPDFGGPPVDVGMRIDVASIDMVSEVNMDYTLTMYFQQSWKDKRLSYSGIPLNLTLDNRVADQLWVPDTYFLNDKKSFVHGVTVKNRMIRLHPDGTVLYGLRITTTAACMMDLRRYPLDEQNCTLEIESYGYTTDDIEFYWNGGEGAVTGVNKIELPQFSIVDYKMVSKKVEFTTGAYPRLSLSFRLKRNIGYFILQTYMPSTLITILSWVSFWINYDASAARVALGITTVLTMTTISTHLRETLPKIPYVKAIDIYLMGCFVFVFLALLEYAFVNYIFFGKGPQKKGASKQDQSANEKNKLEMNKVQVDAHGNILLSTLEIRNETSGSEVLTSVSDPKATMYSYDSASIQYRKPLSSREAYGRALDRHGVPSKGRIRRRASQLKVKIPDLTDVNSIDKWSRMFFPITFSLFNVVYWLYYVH
T4 sequence (P18507 40-475 partner): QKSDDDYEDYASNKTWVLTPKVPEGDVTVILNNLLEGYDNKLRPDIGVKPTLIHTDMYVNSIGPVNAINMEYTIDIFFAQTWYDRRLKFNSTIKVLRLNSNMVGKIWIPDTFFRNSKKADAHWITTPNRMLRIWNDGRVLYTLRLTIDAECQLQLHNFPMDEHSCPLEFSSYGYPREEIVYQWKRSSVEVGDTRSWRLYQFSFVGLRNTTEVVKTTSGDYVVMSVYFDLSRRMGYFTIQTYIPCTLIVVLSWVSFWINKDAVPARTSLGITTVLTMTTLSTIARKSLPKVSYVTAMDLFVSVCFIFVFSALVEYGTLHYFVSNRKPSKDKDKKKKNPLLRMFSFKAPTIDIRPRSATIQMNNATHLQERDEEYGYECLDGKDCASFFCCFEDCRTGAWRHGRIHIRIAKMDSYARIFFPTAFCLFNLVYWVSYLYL
Method: as §1

α1β3γ2 GABAA receptor = target: T5, α1β3γ2 GABAA receptor (Homo sapiens, UniProt P14867+P28472); assay: as above; type: cell-based; conditions: in presence of GABA, — = value not measurable
T5 construct: expressed in transfected cells
T5 sequence (P14867 28-456): as the sequence (P14867 28-456) above
T5 sequence (P28472 26-473): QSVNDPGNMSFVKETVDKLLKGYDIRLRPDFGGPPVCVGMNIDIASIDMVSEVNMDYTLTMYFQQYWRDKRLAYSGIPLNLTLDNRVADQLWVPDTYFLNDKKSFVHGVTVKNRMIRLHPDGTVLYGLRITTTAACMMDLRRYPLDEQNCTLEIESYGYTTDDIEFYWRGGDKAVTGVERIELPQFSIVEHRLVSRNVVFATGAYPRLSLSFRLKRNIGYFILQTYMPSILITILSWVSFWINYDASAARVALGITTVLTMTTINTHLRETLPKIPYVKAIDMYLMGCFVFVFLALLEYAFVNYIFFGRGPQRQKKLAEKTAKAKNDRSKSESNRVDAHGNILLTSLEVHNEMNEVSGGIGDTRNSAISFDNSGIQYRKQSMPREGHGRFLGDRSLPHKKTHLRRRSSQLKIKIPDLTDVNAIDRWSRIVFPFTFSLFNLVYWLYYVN
T5 sequence (P18507 40-475 partner): as the sequence (P18507 40-475 partner) above
Method: as §1

α6β3γ2 GABAA receptor = target: T6, α6β3γ2 GABAA receptor (Homo sapiens, UniProt P28472+Q16445); assay: as above; type: cell-based; conditions: in presence of GABA, — = value not measurable
T6 construct: expressed in transfected cells
T6 sequence (Q16445 20-453): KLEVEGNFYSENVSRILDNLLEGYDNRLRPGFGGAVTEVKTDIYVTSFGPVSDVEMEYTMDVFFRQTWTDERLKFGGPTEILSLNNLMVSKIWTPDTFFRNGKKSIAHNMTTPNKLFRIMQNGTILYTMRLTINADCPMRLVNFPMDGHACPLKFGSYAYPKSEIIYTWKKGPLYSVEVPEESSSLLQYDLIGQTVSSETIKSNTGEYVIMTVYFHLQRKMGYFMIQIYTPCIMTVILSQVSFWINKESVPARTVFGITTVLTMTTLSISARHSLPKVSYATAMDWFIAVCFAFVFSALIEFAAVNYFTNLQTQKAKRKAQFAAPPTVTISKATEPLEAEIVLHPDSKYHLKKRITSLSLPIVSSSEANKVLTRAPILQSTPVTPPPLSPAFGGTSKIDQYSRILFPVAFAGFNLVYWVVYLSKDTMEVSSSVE
T6 sequence (P28472 26-473): as the sequence (P28472 26-473) above
T6 sequence (P18507 40-475 partner): as the sequence (P18507 40-475 partner) above
Method: as §1

α3β3γ2 GABAA receptor = target: T7, α3β3γ2 GABAA receptor (Homo sapiens, UniProt P28472+P34903); assay: as above; type: cell-based; conditions: in presence of GABA, — = value not measurable
T7 construct: expressed in transfected cells
Method: as §1

α2β1γ2 GABAA receptor = target: T8, α2β1γ2 GABAA receptor (Homo sapiens, UniProt P18505+P47869); assay: as above; type: cell-based; conditions: in presence of GABA, — = value not measurable
T8 construct: expressed in transfected cells
Method: as §1

α4β1γ2 GABAA receptor = target: T9, α4β1γ2 GABAA receptor (Homo sapiens, UniProt P18505+P48169); assay: as above; type: cell-based; conditions: in presence of GABA, — = value not measurable
T9 construct: expressed in transfected cells
T9 sequence (P48169 36-554): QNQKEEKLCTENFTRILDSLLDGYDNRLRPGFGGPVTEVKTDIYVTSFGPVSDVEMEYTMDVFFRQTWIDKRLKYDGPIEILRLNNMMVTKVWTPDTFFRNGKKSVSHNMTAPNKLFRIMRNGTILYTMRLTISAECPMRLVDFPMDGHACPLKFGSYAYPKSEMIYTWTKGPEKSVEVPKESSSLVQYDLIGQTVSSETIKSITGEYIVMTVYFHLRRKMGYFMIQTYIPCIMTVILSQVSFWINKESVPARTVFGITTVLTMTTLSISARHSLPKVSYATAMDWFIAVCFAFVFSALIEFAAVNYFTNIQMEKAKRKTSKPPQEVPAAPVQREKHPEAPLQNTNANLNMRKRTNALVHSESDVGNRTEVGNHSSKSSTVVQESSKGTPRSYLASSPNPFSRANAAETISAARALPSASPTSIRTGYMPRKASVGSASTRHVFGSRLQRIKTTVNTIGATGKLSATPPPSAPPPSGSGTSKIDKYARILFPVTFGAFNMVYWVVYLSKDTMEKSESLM
T9 sequence (P18505 26-474): as the sequence (P18505 26-474) above
T9 sequence (P18507 40-475 partner): as the sequence (P18507 40-475 partner) above
Method: as §1

α5β2γ2 GABAA receptor = target: T10, α5β2γ2 GABAA receptor (Homo sapiens, UniProt P31644+P47870); assay: as above; type: cell-based; conditions: in presence of GABA, — = value not measurable
T10 construct: expressed in transfected cells
T10 sequence (P31644 32-462): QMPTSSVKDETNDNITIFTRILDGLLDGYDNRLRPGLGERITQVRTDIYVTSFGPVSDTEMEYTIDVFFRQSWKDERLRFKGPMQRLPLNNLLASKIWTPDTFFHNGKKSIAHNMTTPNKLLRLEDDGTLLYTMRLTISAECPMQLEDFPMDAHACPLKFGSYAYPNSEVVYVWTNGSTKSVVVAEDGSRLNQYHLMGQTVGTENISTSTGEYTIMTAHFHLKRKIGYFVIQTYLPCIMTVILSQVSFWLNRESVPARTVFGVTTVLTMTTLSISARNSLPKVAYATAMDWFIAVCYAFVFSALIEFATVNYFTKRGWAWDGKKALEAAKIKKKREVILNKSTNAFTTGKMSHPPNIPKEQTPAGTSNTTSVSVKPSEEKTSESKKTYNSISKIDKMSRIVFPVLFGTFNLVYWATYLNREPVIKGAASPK
T10 sequence (P47870 25-512 limits assumed): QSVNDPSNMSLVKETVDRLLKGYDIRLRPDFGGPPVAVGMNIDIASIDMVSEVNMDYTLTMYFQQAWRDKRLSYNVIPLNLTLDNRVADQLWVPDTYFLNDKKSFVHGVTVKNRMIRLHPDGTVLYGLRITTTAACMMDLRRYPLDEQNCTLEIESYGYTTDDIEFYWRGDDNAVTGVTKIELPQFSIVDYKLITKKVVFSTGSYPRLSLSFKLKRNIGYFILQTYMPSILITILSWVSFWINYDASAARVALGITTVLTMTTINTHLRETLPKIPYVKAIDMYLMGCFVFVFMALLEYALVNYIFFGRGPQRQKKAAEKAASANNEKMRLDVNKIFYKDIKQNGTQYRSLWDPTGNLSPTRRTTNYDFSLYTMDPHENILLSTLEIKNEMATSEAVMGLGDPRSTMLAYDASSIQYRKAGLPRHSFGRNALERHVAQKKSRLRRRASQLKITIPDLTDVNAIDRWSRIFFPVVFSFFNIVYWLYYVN
T10 sequence (P18507 40-475 partner): as the sequence (P18507 40-475 partner) above
Method: as §1

α3β1γ2 GABAA receptor = target: T11, α3β1γ2 GABAA receptor (Homo sapiens, UniProt P18505+P34903); assay: as above; type: cell-based; conditions: in presence of GABA, — = value not measurable
T11 construct: expressed in transfected cells
Method: as §1

α5β3γ2 GABAA receptor = target: T12, α5β3γ2 GABAA receptor (Homo sapiens, UniProt P28472+P31644); assay: as above; type: cell-based; conditions: in presence of GABA, — = value not measurable
T12 construct: expressed in transfected cells
T12 sequence (P31644 32-462): as the sequence (P31644 32-462) above
T12 sequence (P28472 26-473): as the sequence (P28472 26-473) above
T12 sequence (P18507 40-475 partner): as the sequence (P18507 40-475 partner) above
Method: as §1

α6β1γ2 GABAA receptor = target: T13, α6β1γ2 GABAA receptor (Homo sapiens, UniProt P18505+Q16445); assay: as above; type: cell-based; conditions: in presence of GABA, — = value not measurable
T13 construct: expressed in transfected cells
Method: as §1

α3β2γ2 GABAA receptor = target: T14, α3β2γ2 GABAA receptor (Homo sapiens, UniProt P34903+P47870); assay: as above; type: cell-based; conditions: in presence of GABA, — = value not measurable
T14 construct: expressed in transfected cells
Method: as §1

α2β2γ2 GABAA receptor = target: T15, α2β2γ2 GABAA receptor (Homo sapiens, UniProt P47869+P47870); assay: as above; type: cell-based; conditions: in presence of GABA, — = value not measurable
T15 construct: expressed in transfected cells
Method: as §1

α2β3γ2 GABAA receptor = target: T16, α2β3γ2 GABAA receptor (Homo sapiens, UniProt P28472+P47869); assay: as above; type: cell-based; conditions: in presence of GABA, — = value not measurable
T16 construct: expressed in transfected cells
Method: as §1

α4β3γ2 GABAA receptor = target: T17, α4β3γ2 GABAA receptor (Homo sapiens, UniProt P28472+P48169); assay: as above; type: cell-based; conditions: in presence of GABA, — = value not measurable
T17 construct: expressed in transfected cells
T17 sequence (P48169 36-554): as the sequence (P48169 36-554) above
T17 sequence (P28472 26-473): as the sequence (P28472 26-473) above
T17 sequence (P18507 40-475 partner): as the sequence (P18507 40-475 partner) above
Method: as §1

α4β3δ GABAA receptor [2] = target: T18, α4β3δ GABAA receptor (Homo sapiens, UniProt P28472+P48169); assay: as above; type: cell-based; set-up: expressed in transfected cells; conditions: in presence of GABA, — = value not measurable
T18 sequence (P48169 36-554): as the sequence (P48169 36-554) above
T18 sequence (P28472 26-473): as the sequence (P28472 26-473) above
T18 sequence (O14764 25-452 partner): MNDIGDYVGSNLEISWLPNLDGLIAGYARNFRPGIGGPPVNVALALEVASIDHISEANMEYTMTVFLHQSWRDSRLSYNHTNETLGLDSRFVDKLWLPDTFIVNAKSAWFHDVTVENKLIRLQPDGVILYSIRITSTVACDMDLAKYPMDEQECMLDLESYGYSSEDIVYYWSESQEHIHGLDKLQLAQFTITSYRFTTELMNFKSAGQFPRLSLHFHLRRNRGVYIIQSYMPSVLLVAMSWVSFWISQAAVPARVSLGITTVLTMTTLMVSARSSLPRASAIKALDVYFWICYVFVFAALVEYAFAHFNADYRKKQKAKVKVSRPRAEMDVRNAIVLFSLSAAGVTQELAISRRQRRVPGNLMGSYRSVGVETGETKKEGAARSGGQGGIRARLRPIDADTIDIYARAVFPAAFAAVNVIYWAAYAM
Method: as §1

GABAA receptor subtypes = assay: FLIPR panel of 18 GABAA receptor subtypes; type: cell-based; conditions: for modulating activity across GABAA receptor subtypes tested: 18 subtypes, FLIPR
Method: as §1
The results further indicate that the isomeric purity of compositions containing compounds of Formula (I) greatly impacts the utility of such compositions as therapeutic agents.

[3] = target: picrotoxin binding site of GABAA receptors; conditions: membranes from cortices of rat brains; Table 1 of WO 2016/061527; read-out: IC50 in the TBPS displacement assay; cited from earlier work
α4β3δ GABAA receptor [4] = target: T18, α4β3δ GABAA receptor; set-up: expressed in transfected cells; host or cells: CHO cells (transient); conditions: 10 μM steroid, GABA 2 μM (EC20), CHO cells, Table 2 of WO 2016/061527; cited from earlier work
α1β2γ2 GABAA receptor [5] = target: T1, α1β2γ2 GABAA receptor; conditions: 10 μM steroid, GABA 2 μM (EC20), LTK cells, Table 2 of WO 2016/061527; cited from earlier work

T1 sequence (P14867 28-456): as the sequence (P14867 28-456) above
T1 sequence (P47870 25-512 limits assumed): as the sequence (P47870 25-512 limits assumed) above
T1 sequence (P18507 40-475 partner): as the sequence (P18507 40-475 partner) above

With `C[C@@]1(O)CC[C@@]2(C)[C@@H](CC[C@@H]3[C@@H]2CC[C@]2(C)[C@@H](C(=O)Cn4cc(C#N)cn4)CC[C@@H]32)C1` [CV-10155, 1-[2-[(3R,5S,8R,9S,10S,13S,14S,17S)-3-hydroxy-3,10,13-trimethyl-1,2,4,5,6,7,8,9,11,12,14,15,16,17-tetradecahydrocyclopenta[a]phenanthren-17-yl]-2-oxoethyl]pyrazole-4-carbonitrile] the pEC50 (α1β2γ2 GABAA receptor [1]) was 6.08, the pEC50 (α6β2γ2 GABAA receptor) was 5.96 and the pEC50 (α5β1γ2 GABAA receptor) was 6.12. For the same compound, the pEC50 (α1β1γ2 GABAA receptor) was 6.28, the pEC50 (α1β3γ2 GABAA receptor) was 6.28 and the pEC50 (α6β3γ2 GABAA receptor) was 6.61. It also gave a pEC50 (α3β3γ2 GABAA receptor) of 6.56, a pEC50 (α2β1γ2 GABAA receptor) of 6.60 and a pEC50 (α4β1γ2 GABAA receptor) of 6.69. For the same compound, the pEC50 (α5β2γ2 GABAA receptor) was 6.44, the pEC50 (α3β1γ2 GABAA receptor) was 6.02 and the pEC50 (α5β3γ2 GABAA receptor) was 5.89. It also gave a pEC50 (α6β1γ2 GABAA receptor) of 6.44, a pEC50 (α3β2γ2 GABAA receptor) of 5.74 and a pEC50 (α2β2γ2 GABAA receptor) of 6.67. For the same compound, the pEC50 (α2β3γ2 GABAA receptor) was 6.53, the pEC50 (α4β3γ2 GABAA receptor) was 5.88 and the pEC50 (α4β3δ GABAA receptor [2]) was 6.97. The “modulating activity across GABAA receptor subtypes tested” value (GABAA receptor subtypes) was “some level of positive allosteric modulating activity in all of the GABAA receptor subtypes tested” and the “activity on α4β3δ versus α1β2γ2 GABAA receptors” value (GABAA receptor subtypes; comparison of Example 1 data) was “substantially more active on α4β3δ GABAA receptors than on α1β2γ2 GABAA receptors”.
In the case of `C[C@@]1(O)CC[C@@]2(C)[C@H](CC[C@@H]3[C@@H]2CC[C@]2(C)[C@@H](C(=O)Cn4cc(C#N)cn4)CC[C@@H]32)C1` [Compound 10], the pIC50 [3] is given as > 8.00.
For `C[C@@]1(O)CC[C@@]2(C)[C@@H](CC[C@@H]3[C@@H]2CC[C@]2(C)[C@@H](C(=O)Cn4ccc(C#N)n4)CC[C@@H]32)C1` [Compound 121], the pIC50 [3] is listed as 7.30 to 8.00, the “efficacy (relative potentiation of GABA-mediated conductance)” value (α4β3δ GABAA receptor [4]) is listed as > 500% and the “efficacy (relative potentiation of GABA-mediated conductance)” value (α1β2γ2 GABAA receptor [5]) is listed as > 500%.
`C[C@]1(O)CC[C@@]2(C)[C@@H](CC[C@@H]3[C@@H]2CC[C@]2(C)[C@@H](C(=O)Cn4cc(C#N)cn4)CC[C@@H]32)C1` [SPNC-019, reference compound] gave a pEC50 (α6β3γ2 GABAA receptor) of 5.75, a pEC50 (α5β2γ2 GABAA receptor) of 5.92 and a pEC50 (α5β3γ2 GABAA receptor) of 5.74. The “modulating activity across GABAA receptor subtypes tested” value (GABAA receptor subtypes) was “no modulating activity in 15 of the 18 GABAA receptor subtypes tested”.
